Test results taken from BindingDB's records for PubMed 37639823 (Shenyang Pharmaceutical University).
pIC50: −log10 of the molar value.

Test: Inhibition of NLRP3 inflammasome in mouse BMDMs assessed as reduction in pyroptosis activity preincubated with LPS for 4 hrs followed by compound addition for 30 mins prior to nigericin addition and measured after 1 hr by ELISA

CC1=C(O)C(=O)C=C2C1=CC=C1[C@@]2(C)[C@@H](Br)C[C@@]2(C)[C@@H]3C[C@@H](C)C(=O)C[C@]3(C)CC[C@]12C
pIC50: 6.89

COc1c(O)cc2c(c1C)C(=O)C=C1[C@@]2(C)CC[C@@]2(C)[C@@H]3C[C@@H](C)C(=O)[C@@H](O)[C@]3(C)CC[C@]12C
pIC50: 5.66
